Legend:
Assay type in all cases: cell-based
[1] = system: A549 lung adenocarcinoma cells; assay: MTS cytotoxicity assay, A549; details: Homo sapiens, MTS method, 72 h incubation
Protocol: (§1) Compounds 1, 4–8 were tested for the cytotoxicities against A549, CNE1-MP1, A375, and MCF-7 human cancer cell lines using MTS method.
(§2) Cytotoxic activity was tested against four human cancer cell lines (A549, CNE1-MP1, A375, and MCF-7) using the MTS method. For the MTS assay, the CellTiter 96® AQueous One Solution Reagent (Promega, Madison, WI, USA) was used following the manufacturer’s instruction. In a 96-well plate, each well was plated with 2–5 × 10^3 cells (It depends on the cell multiplication rate). […] The plate was incubated for 72 h at 37 °C in a humidified, 5% CO2 atmosphere. Proliferation assessed by adding 20 μL of MTS to each well in dark followed by a 90 min incubation at 37 °C. The assay plate was read at 490 nm using a microplate reader (Bio-Rad, Hercules, CA, USA). The assay was run in triplicate.

[2] = system: A375 malignant melanoma cells; assay: MTS cytotoxicity assay, A375; details: Homo sapiens, A-375, MTS method, 72 h incubation
Protocol: as §1, §2

[3] = system: MCF-7 breast cancer cells; assay: MTS cytotoxicity assay, MCF-7; details: Homo sapiens, MCF7, MTS method, 72 h incubation
Protocol: as §1, §2

[4] = system: HaCaT (human keratinocyte) cells; assay: MTS cytotoxicity assay, HaCaT negative control cells; details: MTS method, 72 h incubation
[5] = system: CNE1-LMP1 stable oncoprotein LMP1 integrated nasopharyngeal carcinoma cells; assay: MTS cytotoxicity assay, CNE1-LMP1; details: Homo sapiens, MTS method, 72 h incubation
Protocol: as §1, §2

Row | SMILES | IC50 [1] [µM] | IC50 [2] [µM] | IC50 [3] [µM] | IC50 [4] [µM] | IC50 [5] [µM]
1 | CC12COC(c3ccccc3)OC1CCC1(C)C2CCC2CC3CC21CCC3(O)CO (stereo not drawn) [Compound 1, Inflatin G] | 68.7 | 39.8 | 35.2 | 42.6 | 35.4
2 | C[C@@]1(CO)[C@H](O)CC[C@@]2(C)[C@H]1CC[C@H]1C[C@@H]3C[C@@]12CC[C@]3(O)CO [Compound 4, aphidicolin] | 16.2 | 37.3 | 42.3 | 10.4 | 3.12
3 | CC(=O)OC[C@@]1(O)CC[C@]23C[C@H]1C[C@@H]2CC[C@H]1[C@](C)(CO)[C@H](O)CC[C@@]13C [Compound 5, aphidicolin-17-monoacetate] | 5.2 | 40.5 | 66.2 | 8 | 4
4 | COc1cc(=O)oc(C(C)[C@H](C)O)c1C (stereo partly drawn) [Compound 6, gulypyrone A] | > 100 | > 100 | > 100 | > 100 | > 100
5 | C=C[C@H]1C[C@@H](C)C[C@@H](C)[C@@H]1c1c(O)ccn(O)c1=O [Compound 7 and 8, pyridoxatin rotamers A (7) and B (8)] | 0.44 | 0.1 | 0.17 | > 47.5 | 0.2
6 | CC(=O)O[C@H]1C(=O)[C@@]2(C)[C@H]([C@H](OC(=O)c3ccccc3)[C@]3(O)C[C@H](OC(=O)[C@H](O)[C@@H](NC(=O)c4ccccc4)c4ccccc4)C(C)=C1C3(C)C)[C@]1(OC(C)=O)CO[C@@H]1C[C@@H]2O [paclitaxel, reference compound] | 0.03 | 0.0089 | 0.014 | 0.024 | 0.0042
